Test results from patent publication EP4818178A1, “PREPARATION AND USE OF PYRIMIDOTHIOPYRANONE KRAS MUTANT PROTEIN INHIBITOR” (Ya Therapeutics Inc, priority 2024, dated 2025).

molecular target: KRasG12D (Homo sapiens, UniProt P01116, G12D); test: KRAS inhibitory activity test, TR-FRET (inhibition of binding of KRasG12D to GTP, SOS/GTP nucleotide exchange); type: biochemical; conditions: read-out: IC50 values of the compounds for inhibiting KRAS enzymes, G12D
Description: • 1. […] Reagent Preparation: • a. Storage Reagents:
Prepare a 1L solution by mixing 20mL of 1000mM HEPES, 20mL of 500mM EDTA, 10mL of 5M sodium chloride, 0.1mL of 100% Tween 20, and 949.9mL of water. Sterilize by filtration and store at 4°C.
Prepare a 1L solution by mixing 20mL of 1000mM HEPES, 10mL of 1000mM magnesium chloride, 30mL of 5M sodium chloride, 0.05mL of 100% Tween 20, and 939.95mL of water. Sterilize by filtration and store at 4°C. 3) KRAS/Bodipy GDP/Tb-SA Mixture: Mix 9.5 µL of 95 µM KRasG12D protein with 440.5 µL of KRAS nucleotide exchange buffer. Incubate at room temperature for 1 hour. Then, mix with 8.4 µL of 17.9 µM Tb-SA, 1.8 µL of 5 mM Bodipy GDP, and 9539.8 µL of KRAS experimental buffer to prepare […]. After mixing, incubate at room temperature for 6 hours and store at -80°C.
• 1) KRAS Enzyme Solution: Mix 73.3 µL of KRAS/Bodipy GDP/Tb-SA mixture with 2126.7 µL of KRAS experimental buffer to prepare a 2200 µL solution. • 2) SOS/GTP Mixture
c. Experimental Procedure: Mix 1.59 µL of 166 µM SOS protein with 198 µL of 100 mM... GTP and 0.41 µL KRAS buffer were prepared to a 2200 µL solution. The stock solution concentration of the control compound was 1 mM, and the stock solution concentration of the test compound was 10 mM. 9 µL of the control compound and the test compound were transferred to a 384-LDV plate. The compound on the LDV plate was 3-fold diluted 10-point using Bravo. 9 nL of the compound on the LDV plate was transferred to the experimental plate using ECHO. 3 µL of a 3 nM Kras/0.5 nM TB-SA/30 nM BodipyGDP mixture and 3 µL of Ras buffer were added to each well of the experimental plate using a Dragonfly autopilot. The plate was centrifuged at 1000 rpm for 1 minute. The plate was incubated at room temperature for 1 hour. 3 µL of 120 nM SOS/9 mM KRAS buffer was added to each well of the experimental plate using a Dragonfly autopilot. The […] was centrifuged at 1000 rpm for 1 minute; the plate was incubated at room temperature for 1 hour; the plate was read and the data were recorded using Envision; the data were analyzed using Excel and Xlfit to calculate the IC50of the test compound. "++++" indicates IC50≤ 10 nM; "+++" indicates 10 nM < IC50≤ 100 nM; "++" indicates 100 nM < IC50≤ 2000 nM; "+" indicates 2000 nM < IC50.

| Molecule | IC50 [nM] |
| --- | --- |
| Cc1cc(O)c(F)c([C@@H]2Cc3nc(OC[C@@]45CCCN4C[C@H](F)C5)nc(N4C[C@H]5CC[C@@H](C4)N5)c3CS2(=O)=O)c1C(F)(F)F [Compound 2A, (7S)-4-((1R,5S)-3,8-diazabicyclo[3.2.1]octane-3-yl)-7-(2-fluoro-3-hydroxy-5-methyl-6-(trifluoromethyl)phenyl)-2-(((2R,7AS)-2-fluorotetrahydro-1H-pyrrolazin-7a(5H)-yl)methoxy)-7,8-dihydro-5H-thiopyrano[4,3-d]pyrimidine-6,6-dioxide] | 10 to 100 |
| Cc1cc(N)c(F)c(C2Cc3nc(OC[C@@]45CCCN4CC(=CF)C5)nc(N4CC5CCC(C4)N5)c3CS2(=O)=O)c1C(F)(F)F (stereo partly drawn) [Compound 10, 7-7-(3-amino-2-fluoro-5-methyl-6-(trifluoromethyl)phenyl)-4-(3,8-diazabicyclo[3.2.1]octane-3-yl)-2-(((S)-2-(fluoromethylene)tetrahydro-1H-pyrrolazin-7a(5H)-yl)methoxy) -7,8-dihydro-5H-thiopyrano[4,3-d]pyrimidine-6,6-dioxide] | ≤ 10 |
| 7-(3-amino-2-fluoro-5-methyl-6-(trifluoromethyl)phenyl)-4-(1R,5S)-3,8-diazabicyclo [3.2.1]octane-3-yl)-2-(((2R,7AS)-2-fluorotetrahydro-1H-pyrrolazin-7a(5H)-yl)methox y)-7,8-dihydro-5H-thiopyrano[4,3-d]pyrimidine-6,6-dioxide [Compound 36] | ≤ 10 |
| Cc1cc(N)nc([C@@H]2Cc3nc(OC[C@@]45CCCN4C[C@H](F)C5)nc(N4C[C@H]5CC[C@@H](C4)N5)c3CS2(=O)=O)c1C(F)(F)F [Compound 3A, (7S)-7-(6-amino-4-methyl-3-(trifluoromethyl)pyridin-2-yl)-4-((1R,5S)-3,8-diazabicyclo[3.2.1]octane-3-yl)-2-(((2R,7AS)-2-fluorotetrahydro-1H-pyrrolazin-7a(5H)-yl)methoxy)-7,8-dihydro-5H-thiopyrano[4,3-d]pyrimidine 6,6-Dioxide] | 10 to 100 |
| C=C1CN2CCC[C@@]2(COc2nc3c(c(N4CC5CCC(C4)N5)n2)CS(=O)(=O)[C@H](c2nc(N)cc(C)c2C(F)(F)F)C3)C1 [Compound 20A, (7S)-7-(6-amino-4-methyl-3-(trifluoromethyl)pyridin-2-yl)-2-(((S)-2-(methylene)tetra hydro-1H-pyrrolazin-7a(5H)-yl)methoxy)-4-(3,8-diazabicyclo[3.2.1]octane-3-yl)-7,8-dihydro-5H-thiopyrano[4,3-d]pyrimidine-6,6-dioxide] | ≤ 10 |
| CC#Cc1cc(N)c(F)c([C@@H]2Cc3nc(OC[C@@]45CCCN4CC(=C(F)F)C5)nc(N4CC5CCC(C4)N5)c3CS2(=O)=O)c1C(F)(F)F [Compound 23A, (7S)-7-(3-amino-2-fluoro-5-(prop-1-yn-1-yl)-6-(trifluoromethyl)phenyl)-4-(3,8-diazabicyclo[3.2.1]octane-3-yl)-2-(((S)-2-(difluoromethylene)tetrahydro-1H-pyrrolazin-7a(5H)-yl)methoxy)-7,8-dihydro-5H-thiopyrano[4,3-d]pyrimidine-6,6-dioxide] | ≤ 10 |
| CC#Cc1cc(N)c(F)c([C@@H]2Cc3nc(OC[C@@]45CCCN4C[C@H](F)C5)nc(N4CC5CCC(C4)N5)c3CS2(=O)=O)c1C(F)(F)F [Compound 21A, (7S)-7-(3-amino-2-fluoro-5-(prop-1-yn-1-yl)-6-(trifluoromethyl)phenyl)-4-(3,8-diazabicyclo[3.2.1]octane-3-yl)-2-(((2R,7AS)-2-fluorotetrahydro-1H-pyrrolazin-7a(5H)-yl)methoxy)-7,8-dihydro-5H-thiopyrano[4,3-d]pyrimidine-6,6-dioxide] | ≤ 10 |
| Cc1cc(N)c(F)c([C@@H]2Cc3nc(OC[C@@]45CCCN4C[C@H](F)C5)nc(N4C[C@H]5CC[C@@H](C4)N5)c3CS2(=O)=O)c1C(F)(F)F [Compound 29A, (7S)-7-(3-amino-2-fluoro-5-methyl-6-(trifluoromethyl)phenyl)-4-((1R,5S)-3,8-diazabicyclo[3.2.1]octane-3-yl)-2-(((2R,7AS)-2-fluorotetrahydro-1H-pyrrolazin-7a(5H)-yl)methoxy)-7,8-dihydro-5H-thiopyrano[4,3-d]pyrimidine 6,6-Dioxide] | ≤ 10 |
| CC#Cc1cc(N)c(F)c(C2Cc3nc(OC[C@@]45CCCN4CC(=C(F)F)C5)nc(N4CC5CCC(C4)N5)c3CS2(=O)=O)c1C(F)(F)F (stereo partly drawn) [Compound 23, 7-(3-amino-2-fluoro-5-(prop-1-yn-1-yl)-6-(trifluoromethyl)phenyl)-4-(3,8-diazabicyclo[3.2.1]octane-3-yl)-2-(((S)-2-(difluoromethylene)tetrahydro-1H-pyrrolazin-7a(5H)-y 1)methoxy)-7,8-dihydro-5H-thiopyrano[4,3-d]pyrimidine-6,6-dioxide] | ≤ 10 |
| C=C1CN2CCC[C@@]2(COc2nc3c(c(N4CC5CCC(C4)N5)n2)CS(=O)(=O)C(c2nc(N)cc(C)c2C(F)(F)F)C3)C1 (stereo partly drawn) [Compound 20, 7-(6-amino-4-methyl-3-(trifluoromethyl)pyridin-2-yl)-2-(((S)-2-(methylene)tetrahydro-1H-pyrrolazin-7a(5H)-yl)methoxy)-4-(3,8-diazabicyclo[3.2.1]octane-3-yl)-7,8-dihy dro-5H-thiopyrano[4,3-d]pyrimidine-6,6-dioxide] | ≤ 10 |
| Cc1cc(N)c(F)c([C@@H]2Cc3nc(OC[C@@]45CCCN4C[C@H](F)C5)nc(N4C[C@H]5CC[C@@H](C4)N5)c3CS2(=O)=O)c1C(F)(F)F [Compound 34A, (7S)-7-(3-amino-2-fluoro-5-methyl-6-(trifluoromethyl)phenyl)-4-((1R,5S)-3,8-diazabicyclo[3.2.1]octane-3-yl)-2-(((2R,7AS)-2-fluorotetrahydro-1H-pyrrolazin-7a(5H)-yl)methoxy)-7,8-dihydro-5H-thiopyrano[4,3-d]pyrimidine 6,6-Dioxide] | ≤ 10 |
| Cc1cc(N)cc(C2Cc3nc(OC[C@@]45CCCN4CC(=C(F)F)C5)nc(N4CC5CCC(C4)N5)c3CS2(=O)=O)c1C(F)(F)F (stereo partly drawn) [Compound 40] | ≤ 10 |
| Cc1cc(N)c(F)c([C@@H]2Cc3nc(OC[C@@]45CCCN4C[C@H](F)C5)nc(N4C[C@H]5CC[C@@H](C4)N5)c3CS2(=O)=O)c1C(F)(F)F [Compound 1A, (7S)-7-(3-amino-2-fluoro-5-methyl-6-(trifluoromethyl)phenyl)-4-((1R,5S)-3,8-diazabicyclo[3.2.1]octane-3-yl)-2-(((2R,7AS)-2-fluorotetrahydro-1H-pyrrolazin-7a(5H)-yl)methoxy)-7,8-dihydro-5H-thiopyrano[4,3-d]pyrimidine 6,6-Dioxide] | ≤ 10 |
| (7S)-7-(6-amino-4-methyl-3-(trifluoromethyl)pyridin-2-yl)-2-(((2R,7AS)-2-fluorotetr ahydro-1H-pyrrolazin-7a(5H)-yl)methoxy)-4-((R)-3-hydroxy-3-methylpiperidin-1-yl) -7,8-dihydro-5H-thiopyrano[4,3-d]pyrimidine-6,6-dioxide [Compound 8A] | ≤ 10 |
| C=C1CN2CCC[C@@]2(COc2nc3c(c(N4CC5CCC(C4)N5)n2)CS(=O)(=O)C(c2c(F)c(N)cc(C)c2C(F)(F)F)C3)C1 (stereo partly drawn) [Compound 11, 7-(3-amino-2-fluoro-5-methyl-6-(trifluoromethyl)phenyl)-4-(3,8-diazabicyclo[3.2.1]octane-3-yl)-2-(((S)-2-(methylene)tetrahydro-1H-pyrrolazin-7a(5H)-yl)methoxy)-7,8-d ihydro-5H-thiopyrano[4,3-d]pyrimidine-6,6-dioxide] | ≤ 10 |
